# In US20250051403A1, “ANTIMICROBIAL PEPTIDES, VARIANTS AND CHEMICAL ANALOGUES THEREOF AND THEIR USES” (priority 2021, published 2025):
# Non-standard residues stand in square brackets, D forms with d. Residues, ends and D or L forms follow the SMILES beside them. Abu = CC[C@H](N)C(=O)O
# Columns and labels:
# [1] = system: Clostridium perfringens (ATCC 13124); settings: Table VI
# [2] = system: B. subtilis nisin resistant (DSMZ 347); settings: Table VI; Bacillus subtilis Nisin resistant
# [3] = system: Salmonella enterica (CIP 80.39); experiment: MIC, broth microdilution; format: cell-based; settings: Table VI; Salmonella enterica
# Procedure: To standardize the bacterial cell suspension for assay of antibacterial activity, some colonies of each strain grown overnight on MHA (Mueller Hinton Agar. ROTH) plates were suspended in MHB (Mueller Hinton Broth. ROTH) or MHB saline (Mueller Hinton Broth containing 565 mM NaCl) and incubated at 37° C. or 30° C. until visible turbid. This log-phase inoculum was diluted 1:100 in the same culture media. Using sterile 96-well microtiter plates (CELLSTAR. Greiner bio-one), serial 2-fold dilutions (40 to 0.78 μM) of each peptide were prepared in cation-adjusted acetic acid 0.02% with 0.4% BSA (Bovin Serum Albumin fraction V. Boehringer) at a volume of 10 μL/well. Each well was inoculated with 100 μL of the standardized bacterial inoculum, corresponding to a final test concentration of about 10^5 CFU/mL. Antimicrobial activities were expressed as the MIC (Minimal Inhibitory Concentration), the lowest concentration of peptide at which 100% inhibition of microbial growth was observed after 24 h of incubation at 37° C. or 30° C. by measuring OD600 in a microtiter plate reader. The minimal bactericidal concentration (MBC) was defined as the peptide concentration where no colony growth was observed.
# The same experiments as described in 1) were performed. For the evaluation of antimicrobial activity against some other strains, a resazurin microtiter assay was used as explained hereinafter.
# [4] = system: S. aureus methicillin resistant USA300 (ATCC BAA-1717); experiment: MIC, broth microdilution; format: cell-based, Staphylococcus aureus; settings: USA300
# Staphylococcus aureus = format: cell-based
# Procedure: (§1) Biological (antimicrobial) activity of Michelicin (which comprises two disulfide bridges formed between four cysteines) synthetized with (A) or without (B) a stepwise formation of the desired disulfide pattern, was also determined. An analogue of Michelicin which has the same sequence as Michelicin except for the cysteine residues that are replaced by a neutral analogue of cysteine (i.e. Michelicin-OH 2343 (Abu-3-6-11-15)) was synthesized. Abu means 2-aminobutanoic group. This analogue is devoid of disulfide bridges. This analogue of Michelicin is called Michelicin no SS in Table VI.
# Acinetobacter baumannii = format: cell-based
# Procedure: as §1
# [5] = system: Helicobacter pylori 21031; format: cell-based
# Procedure: as §1
# [6] = system: P. aeruginosa Fluoroquinolone resistant (CIP 107398); experiment: MIC, broth microdilution; format: cell-based, Pseudomonas aeruginosa; settings: CIP 107398
structure (smiles),measurement,setting,value
"CC[C@H](NC(=O)[C@H](CCCNC(=N)N)NC(=O)CNC(=O)[C@H](CC(N)=O)NC(=O)[C@H](CCCNC(=N)N)NC(=O)[C@H](CC)NC(=O)[C@@H](NC(=O)[C@H](CCCNC(=N)N)NC(=O)[C@@H](NC(=O)[C@H](CC)NC(=O)[C@@H](NC(=O)[C@@H](N)CCCNC(=N)N)C(C)C)C(C)C)[C@@H](C)CC)C(=O)N[C@@H](Cc1ccc(O)cc1)C(=O)N[C@@H](CCCNC(=N)N)C(=O)N[C@@H](CCCNC(=N)N)C(=O)N[C@@H](CC)C(=O)N[C@@H](Cc1c[nH]c2ccccc12)C(=O)N[C@@H](CC(N)=O)C(=O)N[C@H](C(=O)O)[C@@H](C)O [Michelicin no SS, Michelicin-OH 2343 (Abu-3-6-11-15)] (H-RV[Abu]VRI[Abu]RNGR[Abu]YRR[Abu]WNT-OH; N-terminus assumed)",MIC,V. diabolicus (HE 800),>80 µM
same,MIC,[1],>80 µM
same,MIC,Vibrio alginolyticus,0.625 µM
same,MIC,[2],5 µM
same,MIC,M. smegmatis mc^2155,20 µM
same,MIC,[3],80 µM
same,MIC,[4],>80 µM
same,MIC,Staphylococcus aureus,80 µM
same,MIC,Acinetobacter baumannii,2.5 µM
same,MIC,[5],40 µM
same,MIC,[6],>80 µM
